# Results as given in US20260345654A1, “2,8-DIHYDROXYQUINOLINE GLUCURONIDE DERIVATIVES WITH ENHANCED PROPERTIES FOR USE AS ANTICANCER, ANTIVIRAL, ANTIMICROBIAL, AND OTHER THERAPEUTIC APPLICATIONS” (priority 2023, published 2026).
# “Also recorded” adds a separate entry of the source. Like-named read-outs stand apart in the source and are kept apart here.
# Columns and labels:
# [1] = tested on: RL cells; test: In vitro anti-proliferation (CellTiter-Glo, 72 hr), RL; assay type: cell-based
# Protocol: (§1) Commercially available 8HQ and freshly synthesized G2-8HQ were prepared for in vitro anti-proliferative studies against the following cell lines with and without the presence of 10 μM Cu(+2): (1) A549: […]; (2) BT-549: epithelial cells from ductal tumor; (3) DU-145: human prostate cancer; (4) PANC-1: pancreatic cancer; (5) SU.86.86: a new adoptive pancreatic cell for immunotherapy studies; (6) RL: non-Hodgkin's lymphoma; (7) LnCAP, Prostate cancer cell line; (8) A431, a squamous cell carcinoma line; and (9) UACC-62 a malignant melanoma cell line.
# (§2) With regard to the study protocol used, the objective was to conduct a study of the cytotoxicity of W1469 against several cancer cell lines. In the study protocol, preparations for the A549 (Lung) cell line screen are given as an example. The following materials were used: (1) FBS (2) RPMI-1640 medium supplemented with 10% FBS:’ and (3) A549 Cells. The four samples tested are referred to as Items 1-4 below and were placed at 4 °C upon arrival. These four samples were as follows: • Item 1: Tube A (W1469) (500 uM when FBS added) • Item 2: Tube B (W1469g) (1000 uM when FBS added) • Item 3: Tube C (W1469) • Item 4: Tube D (W1469g)
# (§3) Add 50 μL of above 2× stocks to appropriate wells to expose appropriate cells to the final dilutions of samples. Add 50 μL media to media and cell control wells and 50 μL media mix to vehicle control wells. Cells are exposed for 72 hr. Following a 72 hr exposure to Sample, perform a CTG assay on all remaining plates.
# (§4) At the end of the 72 hr exposure period, remove plates for CellTiter-Glo assay from 37 °C, 5% CO2 incubator and place on the bench at room temperature for 30 mins. Add 100 μL CellTiter-Glo reagent, mix for 2 mins, followed by a further 10 min incubation at room temperature. Record luminescence. Tables showing the resulting plate layouts are included below/
# [2] = tested on: LnCAP cells; test: In vitro anti-proliferation (CellTiter-Glo, 72 hr), LnCAP; assay type: cell-based
# Protocol: as §1, §2, §3, §4
# (§5) The other cancer cell lines tested gave similar results. […] Three additional cell lines were also studied and described more completely in Example 9 provided herein. These cell lines included cytotoxicity testing of WT1469 (G2-8HQ) against LnCAP a prostate cancer, A431 a squamous carcinoma cell line and UACC-62 a malignant melanoma cell line. All were complexed in situ with copper immediately prior to testing. The results from these additional cell lines and incorporated in Table 2 and Example 9.
# [3] = tested on: UACC-62 cells; test: In vitro anti-proliferation (CellTiter-Glo, 72 hr), UACC-62; assay type: cell-based
# Protocol: as §1, §2, §3, §4, §5
# [4] = Chemical stability; assay type: physicochemical
# [5] = Complexation of copper; assay type: physicochemical
# [6] = tested on: squamous cell carcinoma; test: Case study, topical W1469, squamous cell carcinoma (Individual 4); assay type: in vivo, human
# Protocol: Topical gel containing 0.5 mg/ml W1469 in proprietary aqueous alcohol gel, applied initially once daily using a suitable topical applicator.
# In general, the Treatment/Patient protocol used for the patient testing was as follows: • 1. Photograph the application site prior to starting the protocol. Note any changes in lesion size, color, etc. of treatment area. • 2. Remove a loaded syringe from the freezer, dry ice or refrigerator and allow to gradually warm to room temperature. • 3. Photograph the syringe each time prior to application. Note the color of the gel contained in the syringe. • 4. Lightly clean the skin surface with alcohol wipe. • 5. […] Let the liquid from the gel absorb into the site without disturbing. Apply once a day at the same time. • 6. Re-cap the syringe and store in the refrigerator until completely used. • 7. Repeat 1-6 each daily during application period. It is noted in this protocol that photographing the syringe used with each application period accomplishes two things.
# Physician administered, variable treatment protocol, drug concentrations and vehicle carrier. A person with 2 mm ulcerative lesion (squamous cell carcinoma) to the post-auricular area of left side of the head. The lesion area had been biopsied and treated with cryotherapy one year prior. Lesion area had begun to reappear 3 months prior to this photo. After three days of once daily treatment, the same lesion was already reduced to approximately ½ of original size. […] Note: Subject's initial dosing schedule was once daily. […] Upon next visit (three days after initial dosing) […] dose was doubled while maintaining a once daily schedule. Over the next three days their lesion resolved completely and without any adverse reactions noted.
# [7] = Solubility
# [8] = complexed with Cu in situ, * differences with or without excipient, suboptimal complexing, listed as W1469, read-out: IC50 (adjusted to MW of copper complex)
smiles,measurement,setting,value
"O=C(O)[C@H]1O[C@@H](Oc2ccc3cccc(O)c3n2)[C@H](O)[C@@H](O)[C@@H]1O [G2-8HQ, 8-Hydroxy-2-quinolinyl beta-D-glucopyranosiduronic acid]",cytotoxicity,"[1]; 1 and 0.5 μM, presence of Cu^+2 ions, wide standard deviation","in a percentage of cases, all of the cancer cells were killed at concentrations between at 1 and 0.5 μM; also recorded: in some % of the screens all the cancer cells were killed at these concentrations"
same,IC50,"[1]; +Cu (10 μM), 72 hr, G2-8HQ values based on MW of apo form (337), read-out: IC50",0.47 µM
same,IC50,"[1]; Homo sapiens, RL, 72 h, +Cu (10 μM), 72 hr, G2-8HQ values based on MW of apo form (337), read-out: IC50",0.468 µM
same,IC50,"[1]; Homo sapiens, RL, 72 h, −Cu, 72 hr, read-out: IC50",> 500 µM
same,IC50,"[1]; Homo sapiens, RL, complexed with Cu, multiplied by 337/776=0.43, read-out: IC50 (adjusted to MW of copper complex)",0.2 µM
same,IC50,"[2]; +Cu, complexed in situ with copper immediately prior to testing, apo MW (337), read-out: IC50",154 µM
same,IC50,"[2]; Homo sapiens, LNCaP, +Cu, complexed in situ with copper immediately prior to testing, apo MW (337), read-out: IC50",109 µM
same,IC50,"[2]; Homo sapiens, LNCaP, complexed with Cu in situ, * differences with or without excipient, suboptimal complexing, read-out: IC50 (adjusted to MW of copper complex)",46.9 µM
same,IC50,[2]; [8],66.2 µM
same,IC50,"[3]; +Cu, complexed in situ with copper immediately prior to testing, not based on apo MW, read-out: IC50",170 µM
same,IC50,"[3]; Homo sapiens, UACC-62, +Cu, complexed in situ with copper immediately prior to testing, not based on apo MW, read-out: IC50",154 µM
same,IC50,"[3]; Homo sapiens, UACC-62, complexed with Cu in situ, * differences with or without excipient, suboptimal complexing, read-out: IC50 (adjusted to MW of copper complex)",152 µM
same,IC50,[3]; [8],167 µM
same,stability,"[4]; aqueous solutions, pH values lower than 8, or over time in organic solvents",less stable
same,stability,[4]; dissolving in DMSO (without copper),yields over time the precipitated degradation product of the keto form of 2-8HQ
same,stability,[4]; neutral or physiological pH in the plasma,chemically stable
same,stability,[4]; pH of 5,degrade the compound almost immediately
same,Complexes w/copper,[5]; comparison Table 5,Yes
same,copper complexation,"[5]; water or PBS (at neutral pH), without suitable excipient",will not readily complex Cu^+2
same,lesion size (fraction of original size),"[6]; Individual 4, after three days of once daily treatment",approximately ½
same,adverse reactions,"[6]; Individual 4, once daily, dose doubled after three days",no adverse reactions
same,lesion resolution,"[6]; Individual 4, regular treatment for one week",complete resolution of the patient's lesion
same,Solubility of Cu Complex/aqueous,[7]; comparison Table 5,excellent
same,solubility,[7]; water / aqueous,highly aqueous soluble
same,solubility,[7]; water or PBS (at neutral pH),highly soluble
